Assay results from patent publication US20250136553A1, “ACYLSULFONAMIDE KAT6A INHIBITORS” (Olema Pharmaceuticals, Inc., priority 2023, published 2025).
pIC50: −log10 of the molar value.

These compounds were tested against human-KAT6A (MYST domain 507-778 aa) (Homo sapiens (Human), UniProt Q92794) (assay: KAT6A biochemical assay (TR-FRET)). Conditions: TR-FRET; histone H4 peptide 200 nM, acetyl-CoA 600 nM; read-out: KAT6A IC50.
Sequence of human-KAT6A (MYST domain 507-778 aa) (Q92794 507-778): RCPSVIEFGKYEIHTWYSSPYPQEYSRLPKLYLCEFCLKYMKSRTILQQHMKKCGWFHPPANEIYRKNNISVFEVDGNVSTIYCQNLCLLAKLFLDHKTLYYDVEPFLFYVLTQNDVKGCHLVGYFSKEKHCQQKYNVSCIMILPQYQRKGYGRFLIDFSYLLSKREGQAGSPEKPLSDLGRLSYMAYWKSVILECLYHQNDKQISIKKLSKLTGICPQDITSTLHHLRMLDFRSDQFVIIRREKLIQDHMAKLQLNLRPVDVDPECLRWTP
Method in brief: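 KAT6A MYST domain preincubated with compound 30 min at 25° C, then reacted 60 min at 25° C with 200 nM biotin-H4 peptide and 600 nM acetyl-CoA (final). Europium anti-acetyl-lysine/streptavidin-APC TR-FRET read (Ex 340, Em 615/665 nm); % inhibition from 665/615 ratio, IC50 by sigmoidal fit.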
With `COc1nc(C(=O)NS(=O)(=O)c2cc(C(C)(C)C)cc3c2OCC3)ccc1Cn1cccn1` [Compound 280, 5-((1H-pyrazol-1-yl)methyl)-N-((5-(tert-butyl)-2,3-dihydrobenzofuran-7-yl)sulfonyl)-6-methoxypicolinamide] the pIC50 was 8.30. With `COc1ccc2c(c1S(=O)(=O)NC(=O)c1ccc(Cn3cccn3)c(OC)n1)OCO2` [Compound 281, 5-((1H-pyrazol-1-yl)methyl)-6-methoxy-N-((5-methoxybenzo[d][1,3]dioxol-4-yl)sulfonyl)picolinamide] the pIC50 was 8.00. `COc1cc(F)cc(OC)c1S(=O)(=O)NC(=O)c1ccc(Cn2cccn2)c(OC)n1` [Compound 282, 5-((1H-pyrazol-1-yl)methyl)-N-((4-fluoro-2,6-dimethoxyphenyl)sulfonyl)-6-methoxypicolinamide] gave a pIC50 of 7.85. `COc1cc(Cl)cc(OC)c1S(=O)(=O)NC(=O)c1ccc(Cn2cccn2)c(OC)n1` [Compound 283, 5-((1H-pyrazol-1-yl)methyl)-N-((4-chloro-2,6-dimethoxyphenyl)sulfonyl)-6-methoxypicolinamide] was tested, and the pIC50 was 8.00. Work on `CCOc1ccc(CC)c(OC)c1S(=O)(=O)NC(=O)c1ccc(Cn2cccn2)c(OC)n1` [Compound 284, 5-((1H-pyrazol-1-yl)methyl)-N-((6-ethoxy-3-ethyl-2-methoxyphenyl)sulfonyl)-6-methoxypicolinamide] yielded a pIC50 of 8.00. Work on `COc1cc(Br)cc(OC)c1S(=O)(=O)NC(=O)c1ccc(Cn2cccn2)c(OC)n1` [Compound 285, 5-((1H-pyrazol-1-yl)methyl)-N-((4-bromo-2,6-dimethoxyphenyl)sulfonyl)-6-methoxypicolinamide] yielded a pIC50 of 8.22. In the case of `COc1cc(C)c(S(=O)(=O)NC(=O)c2ccc(Cn3cccn3)c(OC)n2)c(OC)c1` [Compound 286, 5-((1H-pyrazol-1-yl)methyl)-N-((2,4-dimethoxy-6-methylphenyl)sulfonyl)-6-methoxypicolinamide], the pIC50 was 7.96. Compound `COc1nc(C(=O)NS(=O)(=O)c2cc(C(F)(F)F)cc3c2OCC3)ccc1Cn1cccn1` [Compound 287, 5-((1H-pyrazol-1-yl)methyl)-6-methoxy-N-((5-(trifluoromethyl)-2,3-dihydrobenzofuran-7-yl)sulfonyl)picolinamide] has a pIC50 of 7.96. For `COc1cc(F)c(S(=O)(=O)NC(=O)c2ccc(Cn3cccn3)c(OC)n2)c(OC)c1` [Compound 288, 5-((1H-pyrazol-1-yl)methyl)-N-((2-fluoro-4,6-dimethoxyphenyl)sulfonyl)-6-methoxypicolinamide], the pIC50 was 8.10. `CCOc1nc(C(=O)NS(=O)(=O)c2c(OC)cccc2OC)ccc1Cn1cccn1` [Compound 289, 5-((1H-pyrazol-1-yl)methyl)-N-((2,6-dimethoxyphenyl)sulfonyl)-6-ethoxypicolinamide] gave a pIC50 of 7.72. With `COc1ccc(C(C)(C)CO)cc1[S@](=N)(=O)NC(=O)c1ccc(Cn2cccn2)c(OC)n1` [Compound 290a, (R)-5-((1H-pyrazol-1-yl)methyl)-N-(5-(1-hydroxy-2-methylpropan-2-yl)-2-methoxyphenylsulfonimidoyl)-6-methoxypicolinamide] the pIC50 was 7.85. `COc1ccc(C(C)(C)CO)cc1[S@@](=N)(=O)NC(=O)c1ccc(Cn2cccn2)c(OC)n1` [Compound 290b, (S)-5-((1H-pyrazol-1-yl)methyl)-N-(5-(1-hydroxy-2-methylpropan-2-yl)-2-methoxyphenylsulfonimidoyl)-6-methoxypicolinamide] gave a pIC50 of 7.48. `COc1cc(C(=O)N[S@@](=N)(=O)c2cc(C(C)(C)CO)ccc2OC)ccc1Cn1cccn1` [Compound 291a, (R)-4-((1H-pyrazol-1-yl)methyl)-N-(5-(1-hydroxy-2-methylpropan-2-yl)-2-methoxyphenylsulfonimidoyl)-3-methoxybenzamide] gave a pIC50 of 7.03. For `COc1cc(C(=O)N[S@](=N)(=O)c2cc(C(C)(C)CO)ccc2OC)ccc1Cn1cccn1` [Compound 291b, (S)-4-((1H-pyrazol-1-yl)methyl)-N-(5-(1-hydroxy-2-methylpropan-2-yl)-2-methoxyphenylsulfonimidoyl)-3-methoxybenzamide], the pIC50 was 8.05.
